Data published in patent publication US9179694B2, “Method and composition for enhancing milk production and milk component concentrations” (PURINA ANIMAL NUTRITION LLC, priority 2003, dated 2015).
Marks after values point to notes of the source that are not given here.

Experiment: Non-esterified fatty acid (NEFA) concentration in blood in sorbitol feeding trials
Assay type: in vivo, Holstein cows
Settings: for lower concentration of NEFA in the blood: at about the time of giving birth
Description: To determine the weight percent of non-esterified fatty acid NEFA, wet basis, in a sample of blood, the blood sample is analyzed by an enzymatic colorimetric method (ACS-ACOD) using the NEFA C diagnostic kit (WAKO Chemicals USA, Richmond, Va.) in combination with an Hitachi 704 Automated Chemistry Analyzer (Hitachi Ltd., Tokyo, Japan). The enzymatic colorimetric method utilizes acyl-CoA synthethase (ACS) and acyl-CoA oxidase (ACOD) to produce a substance that may be measured colorimetrically. The NEFA analysis is conducted in accordance with the NEFA C ACS-ACOD Method instructions that WAKO Chemicals USA provides along with the NEFA C diagnostic kit.
Each cow of each of the six different trials (Control Trial #1, Control Trial #2, Pre-Partum Trial #1, Pre-Partum Trial #2, Pre/Post Trial #1, and Pre/Post Trial #2) was milked three times daily and the weight of produced milk by each cow was recorded at each milking. The milk from each cow was sampled once per week (⅓ of the sample volume from each of the three milkings occurring on the weekly milk sampling day) and was analyzed for true protein, total fat, lactose, and total solids, as detailed in the property determination and characterization techniques presented above. Additionally, samples of blood were periodically obtained from each cow during the four trials (Control Trial 2, Pre-Partum Trial #2, Pre/Post Trial #1, and Pre/Post Trial #2) encompassed in Example Two and were analyzed for non-esterified fatty acid (NEFA) content as detailed in the property determination and characterization techniques presented above. No NEFA analysis was conducted on the cows employed in Control Trial #1 or Pre-Partum Trial #1 that are the subject of Example One.
Example Two includes Control Trial #2, Pre-Partum Trial #2, Pre/Post Trial #1, and Pre/Post Trial #2. Only multiparious, Holstein cows were included in Control Trial #2, Pre-Partum Trial #1, Pre/Post Trial #1, and Pre/Post Trial #2. Eighteen multiparious cows were included in both Control Trial #2 and Pre-Partum Trial #2, while sixteen multiparious cows were included in Pre/Post Trial #1 and seventeen multiparious cows were included in Pre/Post Trial #2.

## OC[C@@H](O)[C@@H](O)[C@H](O)[C@@H](O)CO [sorbitol]
Pre-Partum Trial #2 (75/0/100 g/day in wk −3..−1/+1..+4/+5..+8), multiparious cows, day 0 (Calving)
  Non-Esterified Fatty Acid (NEFA) Concentration in Blood: 0.470^ab mEq/l
Pre-Partum Trial #2 (75/0/100 g/day in wk −3..−1/+1..+4/+5..+8), multiparious cows, day +10
  Non-Esterified Fatty Acid (NEFA) Concentration in Blood: 0.372 mEq/l
Pre-Partum Trial #2 (75/0/100 g/day in wk −3..−1/+1..+4/+5..+8), multiparious cows, day −7
  Non-Esterified Fatty Acid (NEFA) Concentration in Blood: 0.122 mEq/l
Pre-Partum Trial #2 (75/0/100 g/day in wk −3..−1/+1..+4/+5..+8), multiparious cows, day −21
  Non-Esterified Fatty Acid (NEFA) Concentration in Blood: 0.103 mEq/l
Pre/Post Trial #1 (150/125/100 g/day in wk −3..−1/+1..+4/+5..+8), multiparious cows, day 0 (Calving)
  Non-Esterified Fatty Acid (NEFA) Concentration in Blood: 0.416^a mEq/l
Pre/Post Trial #1 (150/125/100 g/day in wk −3..−1/+1..+4/+5..+8), multiparious cows, day 0 (Calving), two-trial comparison with Control Trial #2 (Table 27)
  Non-Esterified Fatty Acid (NEFA) Concentration in Blood: 0.416^b mEq/l
Pre/Post Trial #1 (150/125/100 g/day in wk −3..−1/+1..+4/+5..+8), multiparious cows, day +10
  Non-Esterified Fatty Acid (NEFA) Concentration in Blood: 0.476 mEq/l
Pre/Post Trial #1 (150/125/100 g/day in wk −3..−1/+1..+4/+5..+8), multiparious cows, day +10, two-trial comparison with Control Trial #2 (Table 27)
  Non-Esterified Fatty Acid (NEFA) Concentration in Blood: 0.476 mEq/l
Pre/Post Trial #1 (150/125/100 g/day in wk −3..−1/+1..+4/+5..+8), multiparious cows, day −7
  Non-Esterified Fatty Acid (NEFA) Concentration in Blood: 0.107 mEq/l
Pre/Post Trial #1 (150/125/100 g/day in wk −3..−1/+1..+4/+5..+8), multiparious cows, day −7, two-trial comparison with Control Trial #2 (Table 27)
  Non-Esterified Fatty Acid (NEFA) Concentration in Blood: 0.107 mEq/l
Pre/Post Trial #1 (150/125/100 g/day in wk −3..−1/+1..+4/+5..+8), multiparious cows, day −21
  Non-Esterified Fatty Acid (NEFA) Concentration in Blood: 0.141 mEq/l
Pre/Post Trial #1 (150/125/100 g/day in wk −3..−1/+1..+4/+5..+8), multiparious cows, day −21, two-trial comparison with Control Trial #2 (Table 27)
  Non-Esterified Fatty Acid (NEFA) Concentration in Blood: 0.141 mEq/l
Pre/Post Trial #1 (150/125/100 g/day) versus Control Trial #2, multiparious cows, at calving (Table 27)
  lower NEFA concentrations in blood: 42%
Pre/Post Trial #2 (75/75/100 g/day in wk −3..−1/+1..+4/+5..+8), multiparious cows, day 0 (Calving)
  Non-Esterified Fatty Acid (NEFA) Concentration in Blood: 0.637^ab mEq/l
Pre/Post Trial #2 (75/75/100 g/day in wk −3..−1/+1..+4/+5..+8), multiparious cows, day +10
  Non-Esterified Fatty Acid (NEFA) Concentration in Blood: 0.556 mEq/l
Pre/Post Trial #2 (75/75/100 g/day in wk −3..−1/+1..+4/+5..+8), multiparious cows, day −7
  Non-Esterified Fatty Acid (NEFA) Concentration in Blood: 0.119 mEq/l
Pre/Post Trial #2 (75/75/100 g/day in wk −3..−1/+1..+4/+5..+8), multiparious cows, day −21
  Non-Esterified Fatty Acid (NEFA) Concentration in Blood: 0.114 mEq/l
Pre/Post Trial #2 (so in the source) versus Control Trial #2, multiparious cows
  lower concentration of NEFA in the blood: 42%
All three sorbitol feeding trials (Pre-Partum Trial #2, Pre/Post Trial #1, Pre/Post Trial #2), multiparous cows, the week before calving and at calving
  NEFA concentrations in blood compared with control: lower than the NEFA concentrations in blood found during Control Trial #2
Average of means of Pre-Partum Trial #2, Pre/Post Trial #1 and Pre/Post Trial #2 versus Control Trial #2, multiparious cows
  lower concentration of NEFA in the blood: 28%
